Test results as given in ChEMBL document CHEMBL5303304, “EUbOPEN Chemogenomics Library - IncuCyte” (2023).

Legend:
Assay type in all cases: toxicity, cell-based
[1] = test system: HEK-293T; assay: Incucyte cell viability with HEK293T; conditions: human, 10 µM, compound concentration 10 uM
[2] = test system: Fibroblast; assay: Incucyte cell viability with human fibroblast; conditions: 10 µM, compound concentration 10 uM
[3] = test system: U2OS; assay: Incucyte cell viability with U2OS; conditions: human, 10 µM, compound concentration 10 uM
Further: unitless GR value; below 1 slowed growth and below 0 cell loss.

Compound	Growth Rate ([1]; 0 h, replicate number 1)	Growth Rate ([1]; 6 h, replicate number 1)	Growth Rate ([1]; 6 h, replicate number 2)	Growth Rate ([2]; 0 h, replicate number 2)	Growth Rate ([2]; 12 h, replicate number 2)	Growth Rate ([2]; 18 h, replicate number 1)	Growth Rate ([3]; 12 h, replicate number 1)	Growth Rate ([3]; 12 h, replicate number 2)	Growth Rate ([3]; 24 h, replicate number 1)	Growth Rate ([1]; 0 h, replicate number 2)	Growth Rate ([2]; 6 h, replicate number 1)	Growth Rate ([2]; 6 h, replicate number 2)	Growth Rate ([2]; 18 h, replicate number 2)	Growth Rate ([3]; 6 h, replicate number 1)	Growth Rate ([3]; 6 h, replicate number 2)	Growth Rate ([3]; 18 h, replicate number 1)	Growth Rate ([3]; 18 h, replicate number 2)	Growth Rate ([3]; 24 h, replicate number 2)	Growth Rate ([3]; 0 h, replicate number 1)	further results
O=C(Nc1ccc(S(=O)(=O)Nc2nccs2)cc1)C(c1ccccc1)c1ccccc1	0.71	0.94	0.52	-0.85	0.85	0.49	0.81	0.82	0.94	–	–	–	–	–	–	–	–	–	–	Growth Rate ([1]; 18 h, replicate number 2): 0.82; Growth Rate ([1]; 24 h, replicate number 1): 0.88; Growth Rate ([1]; 24 h, replicate number 2): 0.9
FC(F)(F)Oc1ccc(-c2ccc3nnc(C(F)(F)F)n3c2)cc1	0.83	0.53	–	–	0.76	0.42	0.82	0.64	0.91	0.64	-0.05	-1	0.75	0.08	0.81	0.74	0.92	0.96	–	Growth Rate ([1]; 18 h, replicate number 1): 1; Growth Rate ([2]; 12 h, replicate number 1): -1; Growth Rate ([2]; 24 h, replicate number 2): 0.91
O=S(=O)(Nc1nnc2cc(OCC34CC5CC(CC(C5)C3)C4)c(C3CC3)cn12)C1CC1	0.55	0.8	–	–	0.16	0.51	0.94	0.76	0.94	0.41	0.92	-1	0.43	–	0.37	–	0.91	0.89	–	Growth Rate ([2]; 12 h, replicate number 1): -1; Growth Rate ([2]; 24 h, replicate number 2): 0.63
O=c1ccc2c(OCCCCOc3ccccc3)c3ccoc3cc2o1	0.49	–	–	–	0.95	–	–	–	0.92	0.37	–	–	–	0.73	0.99	0.99	–	–	0.26	Growth Rate ([2]; 24 h, replicate number 1): 0.92
COc1ccc(-n2nc3c4ccccc4[nH]cc-3c2=O)cc1	0.6	–	0.53	0.74	0.81	–	0.89	–	–	–	-0.1	–	0.91	0.7	–	–	–	–	-0.37	Growth Rate ([1]; 12 h, replicate number 2): 1; Growth Rate ([3]; 0 h, replicate number 2): -0.98
Cl.Clc1ccc(OC[C@H]2CCN2)cn1	0.45	0.64	0.93	–	0.34	–	0.58	–	0.76	–	-0.66	-0.05	0.83	-0.1	0.54	0.72	0.97	0.97	-0.28	Growth Rate ([1]; 12 h, replicate number 2): 0.94; Growth Rate ([1]; 18 h, replicate number 1): 0.8; Growth Rate ([1]; 24 h, replicate number 1): 0.83
Cl.c1ccc2c(c1)CCC[C@H]2Nc1nc2ccccc2[nH]1	0.86	0.77	–	0.4	0.56	0.44	–	–	0.98	0.46	–	–	0.87	–	0.97	0.9	0.95	–	0.01	Growth Rate ([2]; 0 h, replicate number 1): 0.94; Growth Rate ([2]; 24 h, replicate number 1): 0.48
